Laboratory results taken from US11192888B2, “Antibacterial compounds” (priority 2017, dated 2021).
Values after ≈ are worked out from the molar mass of the structure shown. Values joined by “and” are separate entries in the source; they are usually repeats but may differ in a detail not shown here. Identical values can stand only once. Like-named read-outs stand apart in the source and are kept apart here. *1 amine or outer side, *2 acyl side, *3 side chain or, on linkers, in order; H or OH if unused. Where a SMILES comes first, the peptide text is derived from it. [ ]: non-standard residue; d: D form. dAla(ψthiazole) = C[C@@H](N[*:1])c1nc(C(=O)[*:2])cs1; Trp(4-Br) = N[C@@H](Cc1c[nH]c2cccc(Br)c12)C(=O)O; Dhb = C/C=C(\N)C(=O)O; Sar = CNCC(=O)O

What was measured:
[1] = system: Pseudomonas aeruginosa NCTC 13437
[2] = system: Corynebacterium urealyticum NCTC 12011
[3] = system: Enterococcus faecium NCTC 12204
[4] = system: Actinomyces viscosus DSM 43327
[5] = system: Proteus mirabilis DSM 30116
[6] = system: Corynebacterium jeikeium NCTC 11914
[7] = system: Bifidobacterium bifidum ATCC 11863
[8] = mice
Description: In this study, a single oral dose of compound 3 in 0.5% w/v aqueous methylcellulose at 5 mg/kg was administered to nine mice in a 10 mL/kg dosing volume and housed in metabolism cages. Following administration of the compound, serial blood samples of 50 μL was taken from the lateral tail vein at each of 7 post-dosing time-points (0.25, 0.5, 1, 2, 4, 7 and 24 h). Whole blood samples were then diluted 1:1 with water and two 40 μL aliquots were pipetted into duplicate 96 well plate tubes. At the end of 24 h, all faecal samples were collected and pooled. A quantitative bioanalysis by LC-MS/MS of the blood and faecal levels of compound 3 was carried out to determine the oral absorbability and gastrointestinal metabolic stability of compound 3.
To evaluate the metabolic stability of orally administered compound 3, metabolite profiling of the faecal sample was performed.

[9] = system: Corynebacterium striatium NCTC 764
[10] = system: Clostridium difficile strains (21 clinical, 7 reference)
[11] = system: Clostridium ramosum DSM 1402
[12] = system: Citrobacter koseri Clinical
[13] = system: Enterobacter cloacae NCTC 13406
[14] = system: C. difficile BI1 (BI/NAP1, ribotype 027); test: Hamster model of C. difficile-associated disease; type: in vivo, Golden Syrian hamsters
[15] = system: Lactobacillus rhamnosus ATCC 53103
[16] = system: Pseudomonas aeruginosa ATCC 27853
[17] = system: Enterococcus faecalis ATCC 29212
[18] = system: Clostridium scindens; test: Growth of Clostridium scindens (separate study); type: cell-based; details: at 80.0 μg/mL
Text: It is known that the presence of Clostridium scindens in the gut can help to keep Clostridium difficile at bay. […] This would not be the case if a broad-spectrum antibiotic, such as vancomycin or metronidazole, was to be used. The lack of activity against Clostridium scindens would, therefore, further help the gut to recover from Clostridium difficile infection.

[19] = system: Bacteroides fragilis ATCC 25285; details: Bacteroides fragilis, ATCC25285
[20] = system: Clostridium difficile ATCC 43255; test: CLSI MIC, representative gut bacteria; type: cell-based
Description: (§1) Comparative in vitro bacterial susceptibility to compounds 3, 9 and 10, vancomycin and metronidazole was determined using methods according to the Clinical and Laboratory Standard Institute (CLSI) approved guidelines (M7-A10, M11-A7 or M45-A2) for anaerobic and aerobic organisms.

[21] = system: Clostridium sordellii ATCC 9714; test: CLSI MIC, representative gut bacteria; type: cell-based
Description: as §1

[22] = system: Propionibacterium acnes ATCC 6919
[23] = system: P. aeruginosa PAO1
[24] = system: Clostridium perfringens NCTC 8237
[25] = system: 23 representatives of normal gut flora; test: CLSI MIC, whole panel of representative gut bacteria; type: cell-based; details: at 64 μg/mL
[26] = system: Escherichia coli ATCC 25922
[27] = system: B. multivorans ATCC17616

**Q.** Which MIC [1] does the source give for C/C=C1\NC(=O)[C@@H](C)NC(=O)CNC(=O)[C@H](Cc2c[nH]c3cccc(Br)c23)NC(=O)[C@H](Cc2c[nH]c3ccccc23)NC(=O)c2csc(n2)[C@@H](C)NC(=O)CN(C)C1=O [Compound 10, Cyclo[D-Ala-Thz-Trp-Trp(4-Br)-Gly-D-Ala-Dhb-Sar]] (cyclo([Dhb][Sar][dAla(ψthiazole)]W[Trp(4-Br)]G[dA])) here?
**A.** >64 µg/mL

**Q.** And the MIC [2]?
**A.** >64 µg/mL

**Q.** What about the MIC [3] of the same molecule?
**A.** >64 µg/mL

**Q.** What about the MIC [4] of the same molecule?
**A.** 8 µg/mL (≈ 9.01 µM)

**Q.** What about the MIC [5] of the same molecule?
**A.** >64 µg/mL

**Q.** What about the MIC [6] of the same molecule?
**A.** >64 µg/mL

**Q.** What about the MIC [7] of the same molecule?
**A.** >64 µg/mL

**Q.** And the “compound recovered from pooled faeces” value ([8]; oral 5 mg/kg, 24 h)?
**A.** up to 90%

**Q.** What about the “faecal concentration, times above the MIC against C. difficile” value ([8]; single 5 mg/kg oral dose) of the same molecule?
**A.** more than 200

**Q.** What about the MIC [9] of the same molecule?
**A.** >64 µg/mL

**Q.** What about the MIC40 ([10]; 28 C. difficile strains) of the same molecule?
**A.** 0.25 µg/mL (≈ 0.282 µM)

**Q.** What about the MIC50 ([10]; 28 C. difficile strains) of the same molecule?
**A.** 0.50 µg/mL (≈ 0.563 µM)

**Q.** What about the MIC90 ([10]; 28 C. difficile strains) of the same molecule?
**A.** 0.50 µg/mL (≈ 0.563 µM)

**Q.** And the MIC ([10]; C. difficile strain 630 (ribotype 012))?
**A.** 0.25 µg/mL (≈ 0.282 µM)

**Q.** And the MIC ([10]; C. difficile strain ATCC 9689 (ribotype 001))?
**A.** 0.5 µg/mL (≈ 0.563 µM)

**Q.** And the MIC ([10]; C. difficile strain ATCC 13366)?
**A.** 1 µg/mL (≈ 1.13 µM)

**Q.** And the MIC ([10]; C. difficile strain ATCC 43255)?
**A.** 0.25 µg/mL (≈ 0.282 µM)

**Q.** What about the MIC ([10]; C. difficile strain ATCC 700057 (ribotype 038)) of the same molecule?
**A.** 0.25 µg/mL (≈ 0.282 µM)

**Q.** And the MIC ([10]; C. difficile strain ATCC BAA 1875 (ribotype 078))?
**A.** 0.5 µg/mL (≈ 0.563 µM)

**Q.** What about the MIC ([10]; C. difficile strain BI1-FDX^R) of the same molecule?
**A.** 0.25 µg/mL (≈ 0.282 µM)

**Q.** What about the MIC ([10]; C. difficile strain Clin. 1) of the same molecule?
**A.** 0.25 µg/mL (≈ 0.282 µM)

**Q.** And the MIC ([10]; C. difficile strain Clin. 2)?
**A.** 0.5 µg/mL (≈ 0.563 µM)

**Q.** And the MIC ([10]; C. difficile strain Clin. 3)?
**A.** 0.25 µg/mL (≈ 0.282 µM)

**Q.** What about the MIC ([10]; C. difficile strain Clin. 5) of the same molecule?
**A.** 0.5 µg/mL (≈ 0.563 µM)

**Q.** What about the MIC ([10]; C. difficile strain Clin. 6) of the same molecule?
**A.** 0.5 µg/mL (≈ 0.563 µM)

**Q.** And the MIC ([10]; C. difficile strain Clin. 7)?
**A.** 0.25 µg/mL (≈ 0.282 µM)

**Q.** What about the MIC ([10]; C. difficile strain Clin. 8) of the same molecule?
**A.** 0.5 µg/mL (≈ 0.563 µM)

**Q.** And the MIC ([10]; C. difficile strain Clin. 9)?
**A.** 0.5 µg/mL (≈ 0.563 µM)

**Q.** What about the MIC ([10]; C. difficile strain Clin. 10) of the same molecule?
**A.** 0.25 µg/mL (≈ 0.282 µM)

**Q.** What about the MIC ([10]; C. difficile strain Clin. 11) of the same molecule?
**A.** 0.5 µg/mL (≈ 0.563 µM)

**Q.** What about the MIC ([10]; C. difficile strain Clin. 12) of the same molecule?
**A.** 0.25 µg/mL (≈ 0.282 µM)

**Q.** And the MIC ([10]; C. difficile strain Clin. 13)?
**A.** 0.5 µg/mL (≈ 0.563 µM)

**Q.** And the MIC ([10]; C. difficile strain Clin. 14)?
**A.** 0.5 µg/mL (≈ 0.563 µM)

**Q.** And the MIC ([10]; C. difficile strain Clin. 15)?
**A.** 0.5 µg/mL (≈ 0.563 µM)

**Q.** And the MIC ([10]; C. difficile strain Clin. 16)?
**A.** 0.25 µg/mL (≈ 0.282 µM)

**Q.** What about the MIC ([10]; C. difficile strain Clin. 18) of the same molecule?
**A.** 0.5 µg/mL (≈ 0.563 µM)

**Q.** What about the MIC ([10]; C. difficile strain Clin. 20) of the same molecule?
**A.** 0.25 µg/mL (≈ 0.282 µM)

**Q.** And the MIC ([10]; C. difficile strain Clin. 21)?
**A.** 0.5 µg/mL (≈ 0.563 µM)

**Q.** What about the MIC ([10]; C. difficile strain Clin. 22) of the same molecule?
**A.** 0.5 µg/mL (≈ 0.563 µM)

**Q.** And the MIC ([10]; C. difficile strain Clin. 23)?
**A.** 0.5 µg/mL (≈ 0.563 µM)

**Q.** What about the MIC ([10]; C. difficile strain Clin. 24) of the same molecule?
**A.** 0.25 µg/mL (≈ 0.282 µM)

**Q.** What about the “share of the C. difficile strains tested that are susceptible” value ([10]; at 0.25 μg/mL) of the same molecule?
**A.** 43%

**Q.** And the “MIC against C. difficile” value ([10]; range over strains)?
**A.** 0.25 to 0.50 µg/mL

**Q.** And the MIC [11]?
**A.** >64 µg/mL

**Q.** What about the MIC [12] of the same molecule?
**A.** >64 µg/mL

**Q.** And the MIC [13]?
**A.** >64 µg/mL

**Q.** And the “hamsters that succumbed to the disease within 36 hours post-infection” value ([14]; 0.2 mg/kg)?
**A.** 100%

**Q.** What about the Mean survival ([14]; 0.2 mg/kg oral twice daily for 5 days) of the same molecule?
**A.** 35.75 h

**Q.** What about the “animals reaching the end of the study at day-21 post-infection” value ([14]; 1.0 mg/kg and 2.5 mg/kg twice daily) of the same molecule?
**A.** 10%

**Q.** What about the Mean survival ([14]; 1.0 mg/kg oral twice daily for 5 days) of the same molecule?
**A.** 155 h and 154.63 h

**Q.** What about the average survival ([14]; 1.0 mg/kg twice daily) of the same molecule?
**A.** 6.5 days

**Q.** What about the “increase in survival time compared to vehicle control” value ([14]; 1.0 mg/kg twice daily) of the same molecule?
**A.** 4.7 fold

**Q.** What about the Mean survival ([14]; 2.5 mg/kg oral twice daily for 5 days) of the same molecule?
**A.** 206 h and 205.92 h

**Q.** What about the average survival ([14]; 2.5 mg/kg twice daily) of the same molecule?
**A.** 8.5 days

**Q.** And the “increase in survival time compared to vehicle control” value ([14]; 2.5 mg/kg twice daily)?
**A.** 6.3 fold

**Q.** What about the “survival at day 6 post-infection” value ([14]; 2.5 mg/kg twice daily) of the same molecule?
**A.** 100%

**Q.** And the “survival time compared to the vehicle control” value ([14]; 0.2, 1.0 and 2.5 mg/kg, non-optimised doses)?
**A.** significant dose dependent increase in survival time

**Q.** What about the MIC [15] of the same molecule?
**A.** >64 µg/mL

**Q.** What about the MIC [16] of the same molecule?
**A.** >64 µg/mL

**Q.** What about the MIC [17] of the same molecule?
**A.** >64 µg/mL

**Q.** What about the “growth of Clostridium scindens” value [18] of the same molecule?
**A.** unaffected

**Q.** And the MIC [19]?
**A.** > 64 µg/mL

**Q.** What about the “fold more potent against C. difficile ATCC 43255 compared to Bacteroides fragilis” value [20] of the same molecule?
**A.** at least 256 fold

**Q.** And the MIC ([20]; Clostridium difficile ATCC 43255)?
**A.** 0.25 µg/mL (≈ 0.282 µM)

**Q.** And the MIC [21]?
**A.** 1.0 µg/mL (≈ 1.13 µM)

**Q.** What about the MIC [22] of the same molecule?
**A.** >64 µg/mL

**Q.** What about the “activity against P. aeruginosa in comparison to the Dha containing compound 3” value ([23]; PAO1) of the same molecule?
**A.** three-fold increase in activity

**Q.** What about the IC50 ([23]; PAO1, 13 h) of the same molecule?
**A.** 3.7 ± 1 µM

**Q.** What about the “% Growth inhibition at 100 μM” value ([23]; PAO1, 13 h, 100) of the same molecule?
**A.** 90.6 ± 1.3%

**Q.** And the “times more potent than Argyrin A” value ([23]; against P. aeruginosa)?
**A.** 4 to 5

**Q.** What about the MIC [24] of the same molecule?
**A.** 64 µg/mL (≈ 72.1 µM)

**Q.** And the “share of the 23 representatives of normal gut flora that are insensitive” value [25]?
**A.** Approximately 90%

**Q.** And the MIC [26]?
**A.** >64 µg/mL

**Q.** And the IC50 ([27]; ATCC17616, 25 h)?
**A.** 840 ± 100 nM

**Q.** What about the “times more potent than Argyrin A” value ([27]; against B. multivorans) of the same molecule?
**A.** 4 to 5
